Test results from patent publication US11130769B2 (Prelude Therapeutics Incorporated, priority 2018, dated 2021).

Assays:
MCL-1 = MCL-1 (Homo sapiens (Human), UniProt Q07820); experiment: Cell free Mcl-1:Bim affinity assay (fluorescence polarization competition); type: binding; conditions: 15 nM MCL-1, 5 nM FITC-Bim, 1 hour at room temperature; class symbols; read-out: BIM_Ki
Summary of the method: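 Fluorescence polarization competition: 10-point 3-fold compound dilutions displaced 5 nM FITC-Bim from 15 nM MCL-1 over 1 h at room temperature. Ki was derived from the fitted IC50 using the Nikolovska-Coleska equation, with percent inhibition normalized to DMSO and positive controls.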

H929 cells = experiment: Cell viability assay (H929 10 FBS); type: cell-based; conditions: Homo sapiens, NCI-H929, 24 hours, read-out: H929_10FBS IC50
Summary of the method: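 ATP-based luminescence (CellTiter-Glo or ATPlite 1 Step, 30-60 min at RT) gauged viability of H929 myeloma cells after 24 h compound treatment at 37 °C. Cells plated at 4000 per well in 10% FBS RPMI 1640 supplemented with pyruvate, HEPES and glucose.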

Chain of MCL-1 (Q07820 whole entry): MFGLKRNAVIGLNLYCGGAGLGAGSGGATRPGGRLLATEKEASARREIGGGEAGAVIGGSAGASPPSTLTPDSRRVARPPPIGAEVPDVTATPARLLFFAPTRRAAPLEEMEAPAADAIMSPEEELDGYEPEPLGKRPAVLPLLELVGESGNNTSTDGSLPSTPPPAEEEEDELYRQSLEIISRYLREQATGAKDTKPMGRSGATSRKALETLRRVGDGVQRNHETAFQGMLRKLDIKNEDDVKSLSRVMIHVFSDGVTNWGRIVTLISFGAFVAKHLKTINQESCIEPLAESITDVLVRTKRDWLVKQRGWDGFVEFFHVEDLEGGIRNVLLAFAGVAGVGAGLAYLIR

| Structure (SMILES) | Ki (MCL-1) [nM] | IC50 (H929 cells) [nM] |
| --- | --- | --- |
| CN1C/C=C/[C@H](OCCN2CCC(F)(F)C2)[C@@H]2CC[C@H]2CN2C[C@@]3(CCCc4cc(Cl)ccc43)COc3ccc(cc32)S(=O)(=O)NC(=O)C1(C)C [Example 288, (3R,6R,7S,8E,22S)-6′-Chloro-7-[2-(3,3-difluoropyrrolidin-1-yl)ethoxy]-11,12,12-trimethyl-15,15-dioxo-spiro[20-oxa-15-thia-1,11,14-triazatetracyclo[14.7.2.03,6.019,24]pentacosa-8,16,18,24-tetraene-22,1′-tetralin]-13-one] | 1 to 100 | > 1000 |
| CN1C/C=C/[C@H](OCCN2CCCCC2)[C@@H]2CC[C@H]2CN2C[C@@]3(CCCc4cc(Cl)ccc43)COc3ccc(cc32)S(=O)(=O)NC(=O)C1(C)C [Example 289, (3R,6R,7S,8E,22S)-6′-Chloro-11,12,12-trimethyl-15,15-dioxo-7-[2-(1-piperidyl)ethoxy]spiro[20-oxa-15-thia-1,11,14-triazatetracyclo[14.7.2.03,6.019,24]pentacosa-8,16,18,24-tetraene-22,1′-tetralin]-13-one] | 1 to 100 | > 1000 |
| CN(C)C(=O)O[C@H]1/C=C/CN2CCC[C@H]2C(=O)NS(=O)(=O)c2ccc3c(c2)N(C[C@@H]2CC[C@H]21)C[C@@]1(CCCc2cc(Cl)ccc21)CO3 [Example 294, [(3R,6R,7S,8E,15S,25S)-6′-Chloro-16,18,18-trioxo-spiro[23-oxa-18-thia-1,11,17-triazapentacyclo[17.7.2.03,6.011,15.022,27]octacosa-8,19,21,27-tetraene-25,1′-tetralin]-7-yl] N,N-dimethylcarbamate] | 1 to 100 | < 500 |
| CN1C/C=C/[C@H](OC(=O)N[C@H]2CCOC2)[C@@H]2CC[C@H]2CN2C[C@@]3(CCCc4cc(Cl)ccc43)COc3ccc(cc32)S(=O)(=O)NC(=O)C12CCC2 [Example 295, [(3R,6R,7S,8E,22S)-6′-Chloro-11-methyl-12,12-(1,3-propylene)-13,15,15-trioxo-spiro[20-oxa-15-thia-1,11,14-triazatetracyclo[14.7.2.03,6.019,24]pentacosa-8,16,18,24-tetraene-22,1′-tetralin]-7-yl] N-[(3S)-tetrahydrofuran-3-yl]carbamate] | 1 to 100 | > 1000 |
| O=C1Cn2ccc(n2)CC(=O)N2CCC(C2)CN2C[C@@]3(CCCc4cc(Cl)ccc43)COc3ccc(cc32)S(=O)(=O)N1 (stereo partly drawn) [Example 296, (23S)-6′-Chloro-16,16-dioxo-spiro[21-oxa-16-thia-1,6,12,15,27-pentazapentacyclo[15.7.2.13,6.19,12.020,25]octacosa-9(27),10,17,19,25-pentaene-23,1′-tetralin]-7,14-dione] | 1 to 100 | < 500 |
| O=C1Cc2ccn(n2)CC(=O)N2CCC(C2)CN2C[C@@]3(CCCc4cc(Cl)ccc43)COc3ccc(cc32)S(=O)(=O)N1 (stereo partly drawn) [Example 297, (23S)-6′-Chloro-16,16-dioxo-spiro[21-oxa-thia-1,6,9,15,27-pentazapentacyclo[15.7.2.13,6.19,12.020,25]octacosa-10,12(27),17,19,25-pentaene-23,1′-tetralin]-7,14-dione] | 1 to 100 | > 1000 |
| CN(C(=O)O[C@H]1/C=C/COC(C)(C)C(=O)NS(=O)(=O)c2ccc3c(c2)N(C[C@@H]2CC[C@H]21)C[C@@]1(CCOc2cc(Cl)ccc21)CO3)[C@@H]1CCOC1 [Example 301, [(3R,6R,7S,8E,22S)-7′-Chloro-12,12-dimethyl-13,15,15-trioxo-spiro[11,20-dioxa-15-thia-1,14-diazatetracyclo[14.7.2.03,6.019,24]pentacosa-8,16,18,24-tetraene-22,4′-chromane]-7-yl] N-methyl-N-[(3R)-tetrahydrofuran-3-yl]carbamate] | < 1 | < 500 |
| CC1(C)OC/C=C/[C@H](OC(=O)N[C@@H]2CCOC2)[C@@H]2CC[C@H]2CN2C[C@@]3(CCOc4cc(Cl)ccc43)COc3ccc(cc32)S(=O)(=O)NC1=O [Example 302, [(3R,6R,7S,8E,22S)-7′-Chloro-12,12-dimethyl-13,15,15-trioxo-spiro[11,20-dioxa-15-dioxa-15-thia-1,14-diazatetracyclo[14.7.2.03,6.019,24]pentacosa-8,16,18,24-tetraene-22,4′-chromane]-7-yl] N-[(3R)-tetrahydrofuran-3-yl]carbamate] | < 1 | < 500 |
| CN(C(=O)O[C@H]1/C=C/COC(C)(C)C(=O)NS(=O)(=O)c2ccc3c(c2)N(C[C@@H]2CC[C@H]21)C[C@@]1(CCOc2cc(Cl)ccc21)CO3)C1COC1 [Example 303, [(3R,6R,7S,8E,22S)-7′-Chloro-12,12-dimethyl-13,15,15-trioxo-spiro[11,20-dioxa-15-thia-1,14-diazatetracyclo[14.7.2.03,6.019,24]pentacosa-8,16,18,24-tetraene-22,4′-chromane]-7-yl] N-methyl-N-(oxetan-3-yl)carbamate] | < 1 | < 500 |

Second part, the molecule after the results:

| Ki (MCL-1) [nM] | IC50 (H929 cells) [nM] | Structure (SMILES) |
| --- | --- | --- |
| < 1 | < 500 | CN1C/C=C/[C@H](OCCN2CC(F)(F)C2)[C@@H]2CC[C@H]2CN2C[C@@]3(CCCc4cc(Cl)ccc43)COc3ccc(cc32)S(=O)(=O)NC(=O)C1(C)C [Example 287, (3R,6R,7S,8E,22S)-6′-Chloro-7-[2-(3,3-difluoroazetidin-1-yl)ethoxy]-11,12,12-trimethyl-15,15-dioxo-spiro[20-oxa-15-thia-1,11,14-triazatetracyclo[14.7.2.03,6.019,24]pentacosa-8,16,18,24-tetraene-22,1′-tetralin]-13-one] |
| < 1 | < 500 | CC1(C)OC/C=C/[C@H](OCC(=O)N2C[C@@H](F)[C@H](F)C2)[C@@H]2CC[C@H]2CN2C[C@@]3(CCCc4cc(Cl)ccc43)COc3ccc(cc32)S(=O)(=O)NC1=O [Example 290, (3R,6R,7S,8E,22S)-6′-Chloro-7-[2-[(3R,4R)-3,4-difluoropyrrolidin-1-yl]-2-oxo-ethoxy]-12,12-dimethyl-15,15-dioxo-spiro[11,20-dioxa-15-thia-1,14-diazatetracyclo[14.7.2.03,6.019,24]pentacosa-8,16,18,24-tetraene-22,1′-tetralin]-13-one] |
| < 1 | < 1000 | CC1(C)OC/C=C/[C@H](OCC(=O)N2C[C@@H](F)[C@@H](F)C2)[C@@H]2CC[C@H]2CN2C[C@@]3(CCCc4cc(Cl)ccc43)COc3ccc(cc32)S(=O)(=O)NC1=O [Example 291, (3R,6R,7S,8E,22S)-6′-Chloro-7-[2-[(3R,4S)-3,4-difluoropyrrolidin-1-yl]-2-oxo-ethoxy]-12,12-dimethyl-15,15-dioxo-spiro[11,20-dioxa-15λ6-thia-1,14-diazatetracyclo[14.7.2.03,6.019,24]pentacosa-8,16,18,24-tetraene-22,1′-tetralin]-13-one] |
| < 1 | < 500 | CC1/C=C/[C@H](OC(=O)N(C)C)[C@@H]2CC[C@H]2CN2C[C@@]3(CCCc4cc(Cl)ccc43)COc3ccc(cc32)S(=O)(=O)NC(=O)C(C)(C)O1 (stereo partly drawn) [Example 292, [(3R,6R,7S,8E,22S)-6′-Chloro-10,12,12-trimethyl-13,15,15-trioxo-spiro[11,20-dioxa-15-thia-1,14-diazatetracyclo[14.7.2.03,6.019,24]pentacosa-8,16,18,24-tetraene-22,1′-tetralin]-7-yl] N,N-dimethylcarbamate] |
| < 1 | < 500 | CN(C)C(=O)O[C@@]1(C)/C=C/COC(C)(C)C(=O)NS(=O)(=O)c2ccc3c(c2)N(C[C@@H]2CC[C@H]21)C[C@@]1(CCCc2cc(Cl)ccc21)CO3 [Example 293, [(3R,6R,7S,8E,22S)-6′-chloro-7,12,12-trimethyl-13,15,15-trioxo-spiro[11,20-dioxa-15-thia-1,14-diazatetracyclo[14.7.2.03,6.019,24]pentacosa-8,16,18,24-tetraene-22,1′-tetralin]-7-yl] N,N-dimethylcarbamate] |
| < 1 | < 1000 | CN(C(=O)O[C@H]1/C=C/COC(C)(C)C(=O)NS(=O)(=O)c2ccc3c(c2)N(C[C@@H]2CC[C@H]21)C[C@]1(CO3)OCCc2cc(Cl)ccc21)C1COC1 [Example 298, [(3R,6R,7S,8E,22R)-6′-Chloro-12,12-dimethyl-13,15,15-trioxo-spiro[11,20-dioxa-15-thia-1,14-diazatetracyclo[14.7.2.03,6.019,24]pentacosa-8,16,18,24-tetraene-22,1′-isochromane]-7-yl] N-methyl-N-(oxetan-3-yl)carbamate] |
| < 1 | < 1000 | CN(C(=O)O[C@H]1/C=C/COC(C)(C)C(=O)NS(=O)(=O)c2ccc3c(c2)N(C[C@@H]2CC[C@H]21)C[C@]1(CO3)OCCc2cc(Cl)ccc21)[C@@H]1CCOC1 [Example 299, [(3R,6R,7S,8E,22R)-6′-Chloro-12,12-dimethyl-13,15,15-trioxo-spiro[11,20-dioxa-15-thia-1,14-diazatetracyclo[14.7.2.03,6.019,24]pentacosa-8,16,18,24-tetraene-22,1′-isochromane]-7-yl] N-methyl-N-[(3R)-tetrahydrofuran-3-yl]carbamate] |
| < 1 | < 1000 | CN(C(=O)O[C@H]1/C=C/COC(C)(C)C(=O)NS(=O)(=O)c2ccc3c(c2)N(C[C@@H]2CC[C@H]21)C[C@]1(CO3)OCCc2cc(Cl)ccc21)C1CCOCC1 [Example 300, [(3R,6R,7S,8E,22R)-6′-Chloro-12,12-dimethyl-13,15,15-trio-spiro[11,20-dioxa-15-thia-1,14-diazatetracyclo[14.7.2.03,6.019,24]pentacosa-8,16,18,24-tetraene-22,1′-isochromane]-7-yl] N-methyl-N-tetrahydropyran-4-yl-carbamate] |
